According to ChEMBL document CHEMBL3137667, “[Drug-induced liver injury; fourteenth updated edition of the bibliographic database of liver injuries and related drugs]” (Gastroenterol Clin Biol, 2004):

What was measured:
[1] = Highest frequency of moderate liver toxicity observed during clinical trials, expressed as a percentage. [column '% BIOL' in source]; conditions: human
[2] = Highest frequency of acute liver toxicity observed during clinical trials, expressed as a percentage. [column '% AIGUE' in source]; conditions: human
[3] = human, serum
[4] = human, serum; remark: listed apart in the source
[5] = human
[6] = human; remark: listed apart in the source
[7] = human; remark: listed apart in the source
[8] = human, serum, 4383 h
[9] = human; remark: listed apart in the source
[10] = human; remark: listed apart in the source
[11] = human; remark: listed apart in the source
[12] = human; remark: listed apart in the source
[13] = human; remark: listed apart in the source
[14] = human; remark: listed apart in the source
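Wherever Hepatotoxicity (association with vascular disease) is given: count of indexed literature references reporting vascular liver injury in humans, e.g. peliosis hepatitis, hepatic veno-occlusive disease or Budd-Chiari syndrome.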
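Wherever Hepatotoxicity (benign tumour) is given: value is a count of indexed literature references citing a benign tumour confirmed by histopathology.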
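Wherever Hepatotoxicity (choleostasis) is given: human cholestatic liver injury, shown by histopathology or by peak ALT or AST elevation over alkaline phosphatase ratio below 2, value counts indexed literature reports.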
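Wherever Hepatotoxicity (chronic liver disease) is given: chronic liver injury confirmed by histopathology or persistently raised serum aminotransferase activity beyond 6 months, value given as the count of indexed literature references.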
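Wherever Hepatotoxicity (cirrhosis) is given: value is a count of indexed literature references reporting cirrhosis confirmed by histopathology.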
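Wherever Hepatotoxicity (cytolytic) is given: human cytolytic liver injury, shown by histopathology or by a ratio above 5 of peak ALT or AST elevation to alkaline phosphatase elevation, value counts indexed references.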
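Wherever Hepatotoxicity (granulomatous hepatitis) is given: value is a count of indexed literature references reporting granulomatous liver disease confirmed by histopathology.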
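Wherever Hepatotoxicity (malignant tumour) is given: malignant tumour confirmed by histopathology, value gives the count of indexed literature references reporting it.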
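Wherever Hepatotoxicity (severe hepatitis) is given: human clinical data: severe hepatitis, meaning potentially life-threatening liver failure or clinically observed cases, the value counts how many indexed literature references report it.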
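Wherever Hepatotoxicity (steatosis) is given: steatosis confirmed by histopathology, value is the count of indexed references.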

SMILES	Hepatotoxicity (moderate) [1] [%]	Hepatotoxicity (acute) [2] [%]	Hepatotoxicity (moderate) [3]	Hepatotoxicity (acute) [4]	Hepatotoxicity (cytolytic) [5]	Hepatotoxicity (choleostasis) [6]	Hepatotoxicity (severe hepatitis) [7]	Hepatotoxicity (chronic liver disease) [8]	Hepatotoxicity (cirrhosis) [9]	Hepatotoxicity (granulomatous hepatitis) [10]	Hepatotoxicity (association with vascular disease) [11]	Hepatotoxicity (steatosis) [12]	Hepatotoxicity (malignant tumour) [13]	Hepatotoxicity (benign tumour) [14]	Hepatotoxicity (moderate) ([1]; Liver) [%]	Hepatotoxicity (acute) ([2]; Liver) [%]	Hepatotoxicity (cytolytic) ([5]; Liver)	Hepatotoxicity (choleostasis) ([6]; Liver)	Hepatotoxicity (severe hepatitis) ([7]; Liver)	Hepatotoxicity (granulomatous hepatitis) ([10]; Liver)
CC1CCN(CCCC(=O)c2ccc(F)cc2)CC1 [MELPERONE]	12	0	2	0	0	0	0	0	0	0	0	0	0	0	–	–	–	–	–	–
CO[C@@H]1C[C@](C)(O)Cc2cc3c(c(O)c21)C(=O)c1c(O)cc2c(c1C3=O)O[C@@H]1O[C@@]2(C)[C@H](O)[C@@H](N(C)C)[C@@H]1O [MENOGARIL]	16.7	0	4	0	0	0	0	0	0	0	0	0	0	0	–	–	–	–	–	–
O=C1NC(=S)NC(=O)C1C(=O)Nc1ccccc1 [MERBARONE]	28.6	3.8	3	1	0	0	0	0	0	0	0	0	0	0	–	–	–	–	–	–
C[C@@H](O)[C@H]1C(=O)N2C(C(=O)O)=C(S[C@@H]3CN[C@H](C(=O)N(C)C)C3)[C@H](C)[C@H]12 [MEROPENEM]	48.1	5.3	92	1	0	0	0	0	0	0	0	0	0	0	–	–	–	–	–	–
Cc1cc(C)cc(OCC2CNC(=O)O2)c1 (stereo not drawn) [METAXALONE]	0	0	0	2	0	0	0	0	0	0	0	0	0	0	–	–	–	–	–	–
CSCC[C@H](N)C(=O)O [METHIONINE]	–	–	1	2	–	–	–	0	0	–	0	0	0	0	0	0	1	0	0	0
CN1C(CCl)Nc2cc(Cl)c(S(N)(=O)=O)cc2S1(=O)=O (stereo not drawn) [METHYCLOTHIAZIDE]	0	0	1	0	0	0	0	0	0	0	0	0	0	0	–	–	–	–	–	–
Clc1ccc(COC(Cn2ccnc2)c2ccc(Cl)cc2Cl)c(Cl)c1 (stereo not drawn) [MICONAZOLE]	0	0	2	0	0	0	0	0	0	0	0	0	0	0	–	–	–	–	–	–
CC(C)/N=C/Nc1ccc(-c2c[nH]cn2)cc1 [MIFENTIDINE]	3.3	0	1	0	0	0	0	0	0	0	0	0	0	0	–	–	–	–	–	–
Cc1[nH]c(=O)c(C#N)cc1-c1ccncc1 [MILRINONE]	2	0	2	0	0	0	0	0	0	0	0	0	0	0	–	–	–	–	–	–
CCCCC(C)(O)C/C=C/[C@H]1[C@H](O)CC(=O)[C@@H]1CCCCCCC(=O)OC (stereo partly drawn) [MISOPROSTOL]	16.7	0	6	0	0	0	0	0	0	0	0	0	0	0	–	–	–	–	–	–
CC(/C=N/NC(=N)N)=N\NC(=N)N [MITOGUAZONE]	18.2	0	1	0	0	0	0	0	0	0	0	0	0	0	–	–	–	–	–	–
